For data set [1], the system named is Escherichia coli expressing NDM-1 (CLB30005, CLB30016). The format is cell-based. As to conditions: with imipenem 1 μg/ml, 95% inhibition of bacterial growth; for Escherichia coli MITC95: NDM-1 (CLB30016). The procedure, abridged: (§1)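 Clinical strains grown overnight on blood agar, then diluted 1:100 in 1.1× CAMHB and exposed to test compound with imipenem at 1 μg/ml. Incubation was 22–24 h at 35° C; growth was read by absorbance to find the compound concentration restoring imipenem susceptibility.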

In data set [2] the test system is Serratia marcescens expressing IMP-1 (CL5741). The format is cell-based. As to conditions: with imipenem 1 μg/ml, 95% inhibition of bacterial growth; for Serratia marcescens MITC95: IMP-1 (CL5741). In outline:
as §1

For data set [3], the system named is Klebsiella pneumoniae expressing VIM-1 (IHMA599644). The data set is classed as cell-based. As to conditions: with imipenem 1 μg/ml, 95% inhibition of bacterial growth; for Klebsiella pneumoniae MITC95: VIM-1 (IHMA599644). The procedure, abridged:
as §1

In the next data set the target is NDM-1 (Klebsiella pneumoniae, UniProt C7C422). In words: biochemical. The data set is classed as biochemical. As to conditions: CCF2-FA substrate, 2 hours at 25° C; read-out: NDM-1 IC50. The procedure, abridged:
(§2)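 Fluorescence assay of metallo-β-lactamase activity using CCF2-FA, a cephalosporin-linked 7-hydroxycoumarin–fluorescein substrate. Inhibitor, enzyme and substrate were incubated together for 2 hours at 25° C. IC50 came from a 4-parameter fit of inhibition versus inhibitor concentration.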

The target in the next data set is IMP-1 (Serratia marcescens, UniProt P52699). In words: biochemical. The format is biochemical. As to conditions: CCF2-FA substrate, 2 hours at 25° C; read-out: IMP-1 IC50. In outline:
as §2

A further data set deals with VIM-1 (Pseudomonas aeruginosa (strain ATCC 15692 / DSM 22644 / CIP 104116 / JCM 14847 / LMG 12228 / 1C / PRS 101 / PAO1), UniProt A0A0F7KYQ8). As to the kind of experiment: biochemical. As to conditions: CCF2-FA substrate, 2 hours at 25° C. In outline: as §2
Data set [4] relates to P. aeruginosa expressing IMP-1, efflux+ (MB9798). The format is cell-based, Pseudomonas aeruginosa. As to conditions: for P. aeruginosa expressing IMP-1, efflux+ (MB9798) MITC95: imipenem at 2 μg/mL, in the presence of a class A, C, D serine β-lactamase inhibitor closely related to relebactam; for Efflux ratio: ratio MITC95 PA_9798/MITC95 PA_9799. From the text: (§3) The strain background is Pseudomonas aeruginosa PAO1.

Data set [5] deals with P. aeruginosa expressing IMP-1, efflux− (MB9799). As to the kind of experiment: Efflux: concentration of MBL inhibitor which restores susceptibility to imipenem. The data set is classed as cell-based, Pseudomonas aeruginosa. As to conditions: imipenem at 2 μg/mL, in the presence of a class A, C, D serine β-lactamase inhibitor closely related to relebactam.
From the text: as §3

IMP-1, sequence (P52699 whole entry, looked up, species assumed): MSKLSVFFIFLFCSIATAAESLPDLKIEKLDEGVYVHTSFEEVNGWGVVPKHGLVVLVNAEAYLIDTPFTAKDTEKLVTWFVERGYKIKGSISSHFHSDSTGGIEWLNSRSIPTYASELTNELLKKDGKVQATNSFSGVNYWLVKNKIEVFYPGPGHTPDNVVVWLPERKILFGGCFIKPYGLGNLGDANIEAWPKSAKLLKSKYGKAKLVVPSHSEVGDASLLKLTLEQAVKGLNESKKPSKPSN
NDM-1, sequence (C7C422 whole entry, looked up, species assumed): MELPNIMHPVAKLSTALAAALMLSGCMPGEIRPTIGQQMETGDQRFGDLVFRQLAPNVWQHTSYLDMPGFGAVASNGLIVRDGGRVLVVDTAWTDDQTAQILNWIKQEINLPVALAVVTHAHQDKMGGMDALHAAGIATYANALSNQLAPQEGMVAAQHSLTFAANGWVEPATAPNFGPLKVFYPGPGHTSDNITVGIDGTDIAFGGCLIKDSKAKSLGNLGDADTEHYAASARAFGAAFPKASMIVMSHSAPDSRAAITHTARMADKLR

As to `CS(=O)(=O)Nc1nc2c(-c3ccc(S(=O)(=O)C4CCNCC4)c(S(N)(=O)=O)c3-c3nn[nH]n3)cccc2s1` [Example 325, 3-(2-(methylsulfonamido)benzo[d]thiazol-4-yl)-6-(piperidin-4-ylsulfonyl)-2-(2H-tetrazol-5-yl)benzenesulfonamide], the “Escherichia coli MITC95” value in data set [1] is 12.5 µM. Besides, the “Serratia marcescens MITC95” value in data set [2] was found to be 12.5 µM. In addition, the “Klebsiella pneumoniae MITC95” value in data set [3] is 25 µM. In addition, the IC50 on NDM-1 is 72.3 pM; at IMP-1 it was 239 pM; at VIM-1, 346 pM. In data set [4], the “P. aeruginosa expressing IMP-1, efflux+ (MB9798) MITC95” value was 6.25 µM. The Efflux ratio in data set [4] is reported as 1.00. For the same compound, the “P. aeruginosa expressing IMP-1, efflux− (MB9799) MITC95” value in data set [5] came out at 6.25 µM.
In the case of `NCc1nc2c(-c3ccc(S(=O)(=O)C[C@@H](O)CN)c(S(N)(=O)=O)c3-c3nn[nH]n3)cccc2[nH]1` [Example 369, (S)-6-((3-amino-2-hydroxypropyl)sulfonyl)-3-(2-(aminomethyl)-1H-benzo[d]imidazol-4-yl)-2-(2H-tetrazol-5-yl) benzenesulfonamide], the “Escherichia coli MITC95” value in data set [1] amounted to 0.7813 µM. For the same compound, the “Serratia marcescens MITC95” value in data set [2] stood at 0.7813 µM. Also, the “Klebsiella pneumoniae MITC95” value in data set [3] worked out at 1.563 µM. In addition, the IC50 is 973 pM on NDM-1, 3570 pM on IMP-1 and 401 pM on VIM-1. In addition, in data set [4], the “P. aeruginosa expressing IMP-1, efflux+ (MB9798) MITC95” value was 0.7813 µM. Also, in data set [4], the Efflux ratio stood at 1.00. In addition, the “P. aeruginosa expressing IMP-1, efflux− (MB9799) MITC95” value in data set [5] worked out at 0.7813 µM.
Consider `CCn1c(N)nc2c(-c3ccc(S(=O)(=O)C4CNC4)c(S(N)(=O)=O)c3-c3nn[nH]n3)cccc21` [Example 283, 3-(2-amino-1-ethyl-1H-benzo[d]imidazol-4-yl)-6-(azetidin-3-ylsulfonyl)-2-(2H-tetrazol-5-yl)benzenesulfonamide], for which the “Escherichia coli MITC95” value in data set [1] stood at 0.3906 µM. Further, in data set [2], the “Serratia marcescens MITC95” value worked out at 1.563 µM. Besides, in data set [3], the “Klebsiella pneumoniae MITC95” value amounted to 1.563 µM. Moreover, the IC50 at NDM-1 worked out at 116 pM; on IMP-1, 496 pM; on VIM-1, 348 pM. For the same compound, the “P. aeruginosa expressing IMP-1, efflux+ (MB9798) MITC95” value in data set [4] amounted to 6.25 µM. Besides, in data set [4], the Efflux ratio was 4.00. In addition, in data set [5], the “P. aeruginosa expressing IMP-1, efflux− (MB9799) MITC95” value came to 1.563 µM.
Take `NCCS(=O)(=O)c1ccc(-c2cccc3[nH]c(C(=O)O)nc23)c(-c2nn[nH]n2)c1S(N)(=O)=O` [Example 91, 4-(4-((2-aminoethyl)sulfonyl)-3-sulfamoyl-2-(2H-tetrazol-5-yl)phenyl)-1H-benzo[d]imidazole-2-carboxylic Acid]: in data set [1], the “Escherichia coli expressing NDM-1 (CLB30016) MITC95” value stood at 1.172 µM. The “Serratia marcescens expressing IMP-1 (CL5741) MITC95” value in data set [2] stood at 1.563 µM. For the same compound, in data set [3], the “Klebsiella pneumoniae expressing VIM-1 (IHMA599644) MITC95” value turned out to be 2.344 µM. Also, the IC50 is 189 pM on NDM-1, 386 pM at IMP-1 and 239 pM on VIM-1. Also, in data set [4], the “P. aeruginosa expressing IMP-1, efflux+ (MB9798) MITC95” value is 0.7813 µM. In data set [4], the Efflux ratio is reported as 1.00. In addition, the “P. aeruginosa expressing IMP-1, efflux− (MB9799) MITC95” value in data set [5] came to 0.7813 µM.
With `COC(=O)c1cccc(-c2ccc(S(=O)(=O)CCN)c(S(N)(=O)=O)c2-c2nn[nH]n2)c1N` [Example 197, methyl 2-amino-4′-((2-aminoethyl)sulfonyl)-3′-sulfamoyl-2′-(2H-tetrazol-5-yl)-[1,1′-biphenyl]-3-carboxylate], the “Escherichia coli expressing NDM-1 (CLB30016) MITC95” value in data set [1] stood at 0.7813 µM. Further, in data set [2], the “Serratia marcescens expressing IMP-1 (CL5741) MITC95” value is 1.563 µM. The “Klebsiella pneumoniae expressing VIM-1 (IHMA599644) MITC95” value in data set [3] was found to be 3.125 µM. Further, the IC50 at NDM-1 came out at 556 pM; at IMP-1 it was 554 pM; at VIM-1, 262 pM. Moreover, the “P. aeruginosa expressing IMP-1, efflux+ (MB9798) MITC95” value in data set [4] worked out at 12.5 µM. Besides, the Efflux ratio in data set [4] was 8.00. In data set [5], the “P. aeruginosa expressing IMP-1, efflux− (MB9799) MITC95” value worked out at 1.563 µM.

These data come from patent US10227331B2 (priority 2015, dated 2019).
